In US20230120564A1, “PYRIDO[3,4-D]PYRIMIDINE DERIVATIVE AND THERAPEUTIC PHARMACEUTIC COMPOSITION COMPRISING SAME” (KOREA INSTITUTE OF SCIENCE AND TECHNOLOGY, priority 2020, published 2023):

How the values were obtained:
Test in all cases: full kinase panel biochemical assay
[1] = molecular target: EPHA8 (Homo sapiens, UniProt P29322); details: single concentration of 1 μM; read-out: percent inhibition of EPHA8
Procedure: (§1) In order to measure the protein kinase inhibitory activity (% inhibition) of the compound of the present invention, biochemical assay was performed in the full kinase panel. As a test compound, Compound No. 4 was used. The percent inhibition of each kinase when treated with the test compound at a single concentration of 1 μM was measured, and the residual enzyme activity values (%) of the kinases were calculated. Kinases whose calculated residual enzyme activity values (%) was 30% or less (i.e., kinases inhibited by 70% or more) are as follows: ABL1, ABL2/ARG, ACK1, ARAF, BLK, BMX/ETK, BRAF, BRK, BTK, c-Kit, c-Src, CSK, DDR1, DDR2, EPHA1, EPHA2, EPHA3, EPHA4, EPHA5, EPHA6, EPHA7, EPHA8, EPHB1, EPHB2, EPHB3, EPHB4, ERBB2/HER2, ERBB4/HER4, FGFR1, FGFR2, FGFR3, FGR, FLT1/VEGFR1, FLT4/VEGFR3, FMS, FRK/PTK5, FYN, GCK/MAP4K2, HCK, HGK/MAP4K4, JAK1, JAK2, KDR/VEGFR2, KHS/MAP4K5, LCK, LYN, LYN B, MEKK1, MLK4, MYLK3, NEK5, P38a/MAPK14, P38b/MAPK11, PDGFRa, PDGFRb, PEAK1, RET, RIPK2, RIPK4, SIK2, SRPK1, TAOK3/JIK, TLK1, TNK1, TXK, TYK2, YES/YES1, YSK4/MAP3K19, and ZAK/MLTK.

[2] = molecular target: ACK1 (Homo sapiens, UniProt Q07912); details: single concentration of 1 μM; read-out: percent inhibition of ACK1
Procedure: as §1

[3] = molecular target: JAK1 (Homo sapiens, UniProt P23458); details: single concentration of 1 μM; read-out: percent inhibition of JAK1
Procedure: as §1

[4] = molecular target: KHS/MAP4K5 (Homo sapiens, UniProt Q9Y4K4); details: single concentration of 1 μM; read-out: percent inhibition of KHS/MAP4K5
Sequence of KHS/MAP4K5 (Q9Y4K4 whole entry): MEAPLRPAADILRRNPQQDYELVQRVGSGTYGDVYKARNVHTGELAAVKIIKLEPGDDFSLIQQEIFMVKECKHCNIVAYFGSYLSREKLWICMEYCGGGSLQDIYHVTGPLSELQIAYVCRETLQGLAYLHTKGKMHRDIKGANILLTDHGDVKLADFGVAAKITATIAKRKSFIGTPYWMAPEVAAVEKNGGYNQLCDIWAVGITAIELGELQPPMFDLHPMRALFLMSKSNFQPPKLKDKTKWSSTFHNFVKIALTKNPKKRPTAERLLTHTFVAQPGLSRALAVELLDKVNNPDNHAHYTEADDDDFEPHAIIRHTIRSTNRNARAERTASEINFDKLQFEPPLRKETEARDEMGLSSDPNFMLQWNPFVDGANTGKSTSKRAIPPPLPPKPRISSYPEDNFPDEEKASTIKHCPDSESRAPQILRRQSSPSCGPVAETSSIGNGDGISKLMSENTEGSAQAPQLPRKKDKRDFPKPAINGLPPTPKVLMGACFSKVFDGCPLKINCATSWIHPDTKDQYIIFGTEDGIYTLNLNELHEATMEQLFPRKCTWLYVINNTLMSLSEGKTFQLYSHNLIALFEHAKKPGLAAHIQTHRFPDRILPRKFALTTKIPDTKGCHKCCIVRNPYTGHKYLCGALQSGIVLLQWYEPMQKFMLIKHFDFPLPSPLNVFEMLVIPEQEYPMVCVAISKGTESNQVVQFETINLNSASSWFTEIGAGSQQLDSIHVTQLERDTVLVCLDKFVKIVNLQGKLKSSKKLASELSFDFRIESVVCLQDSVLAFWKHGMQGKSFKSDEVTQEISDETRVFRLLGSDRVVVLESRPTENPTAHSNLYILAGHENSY
Procedure: as §1

[5] = molecular target: ABL2/ARG (Homo sapiens, UniProt P42684); details: single concentration of 1 μM; read-out: percent inhibition of ABL2/ARG
Procedure: as §1

[6] = molecular target: BLK (Homo sapiens, UniProt P51451); details: single concentration of 1 μM; read-out: percent inhibition of BLK
Procedure: as §1

[7] = molecular target: PDGFRa (Homo sapiens, UniProt P16234); details: single concentration of 1 μM; read-out: percent inhibition of PDGFRa
Procedure: as §1

[8] = molecular target: FLT1/VEGFR1 (Homo sapiens, UniProt P17948); details: single concentration of 1 μM; read-out: percent inhibition of FLT1/VEGFR1
Procedure: as §1

[9] = molecular target: TNK1 (Homo sapiens, UniProt Q13470); details: single concentration of 1 μM; read-out: percent inhibition of TNK1
Procedure: as §1

[10] = molecular target: YSK4/MAP3K19 (Homo sapiens, UniProt Q56UN5); details: single concentration of 1 μM; read-out: percent inhibition of YSK4/MAP3K19
Procedure: as §1

[11] = molecular target: EPHB3 (Homo sapiens, UniProt P54753); details: single concentration of 1 μM; read-out: percent inhibition of EPHB3
Procedure: as §1

[12] = molecular target: P38a/MAPK14 (Homo sapiens, UniProt Q16539); details: single concentration of 1 μM; read-out: percent inhibition of P38a/MAPK14
Procedure: as §1

[13] = molecular target: ZAK/MLTK (Homo sapiens, UniProt Q9NYL2); details: single concentration of 1 μM; read-out: percent inhibition of ZAK/MLTK
Procedure: as §1

[14] = molecular target: EPHA7 (Homo sapiens, UniProt Q15375); details: single concentration of 1 μM; read-out: percent inhibition of EPHA7
Sequence of EPHA7 (Q15375 28-998): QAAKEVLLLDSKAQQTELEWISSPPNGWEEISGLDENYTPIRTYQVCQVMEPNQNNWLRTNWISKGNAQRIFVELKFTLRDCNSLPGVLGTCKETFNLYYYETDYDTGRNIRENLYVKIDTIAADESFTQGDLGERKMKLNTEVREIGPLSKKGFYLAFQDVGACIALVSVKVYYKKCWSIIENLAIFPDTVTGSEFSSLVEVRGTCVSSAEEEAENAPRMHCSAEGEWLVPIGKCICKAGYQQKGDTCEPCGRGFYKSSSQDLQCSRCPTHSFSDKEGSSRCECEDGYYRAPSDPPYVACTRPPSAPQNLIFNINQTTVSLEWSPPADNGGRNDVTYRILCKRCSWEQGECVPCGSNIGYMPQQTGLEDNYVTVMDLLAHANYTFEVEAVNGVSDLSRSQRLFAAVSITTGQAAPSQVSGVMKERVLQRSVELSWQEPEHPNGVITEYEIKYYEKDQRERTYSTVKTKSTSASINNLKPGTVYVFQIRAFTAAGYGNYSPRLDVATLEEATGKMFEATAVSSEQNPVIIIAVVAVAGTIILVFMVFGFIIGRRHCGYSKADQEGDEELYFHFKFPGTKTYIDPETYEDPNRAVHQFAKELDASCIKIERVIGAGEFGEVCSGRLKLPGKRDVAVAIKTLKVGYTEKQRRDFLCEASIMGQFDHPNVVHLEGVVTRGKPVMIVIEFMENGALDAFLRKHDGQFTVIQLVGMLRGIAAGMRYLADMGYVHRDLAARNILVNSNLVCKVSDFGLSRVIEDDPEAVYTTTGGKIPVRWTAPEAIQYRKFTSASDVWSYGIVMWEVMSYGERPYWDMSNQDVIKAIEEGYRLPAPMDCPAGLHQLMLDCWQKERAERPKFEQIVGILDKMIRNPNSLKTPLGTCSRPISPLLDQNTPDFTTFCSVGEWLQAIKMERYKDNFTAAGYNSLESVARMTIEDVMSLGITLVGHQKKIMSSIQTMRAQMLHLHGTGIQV
Procedure: as §1

[15] = molecular target: ARAF (Homo sapiens, UniProt P10398); details: single concentration of 1 μM; read-out: percent inhibition of ARAF
Sequence of ARAF (P10398 whole entry): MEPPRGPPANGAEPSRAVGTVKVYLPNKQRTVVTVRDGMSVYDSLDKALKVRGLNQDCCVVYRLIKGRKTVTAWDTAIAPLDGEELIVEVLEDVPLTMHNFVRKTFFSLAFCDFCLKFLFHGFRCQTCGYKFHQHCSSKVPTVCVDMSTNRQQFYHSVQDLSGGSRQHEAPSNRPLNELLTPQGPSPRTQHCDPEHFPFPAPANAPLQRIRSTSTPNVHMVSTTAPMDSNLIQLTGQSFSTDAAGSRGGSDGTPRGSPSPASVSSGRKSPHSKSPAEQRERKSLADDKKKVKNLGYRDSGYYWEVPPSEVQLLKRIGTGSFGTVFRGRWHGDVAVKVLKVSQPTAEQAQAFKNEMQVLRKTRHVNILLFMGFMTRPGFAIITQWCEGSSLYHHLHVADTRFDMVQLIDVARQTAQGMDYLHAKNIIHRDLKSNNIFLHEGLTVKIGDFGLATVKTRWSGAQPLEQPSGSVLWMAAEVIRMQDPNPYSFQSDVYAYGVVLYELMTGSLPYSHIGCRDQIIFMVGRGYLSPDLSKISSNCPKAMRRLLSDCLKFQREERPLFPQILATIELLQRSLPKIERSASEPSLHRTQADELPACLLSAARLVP
Procedure: as §1

[16] = molecular target: SIK2 (Homo sapiens, UniProt Q9H0K1); details: single concentration of 1 μM; read-out: percent inhibition of SIK2
Sequence of SIK2 (Q9H0K1 whole entry): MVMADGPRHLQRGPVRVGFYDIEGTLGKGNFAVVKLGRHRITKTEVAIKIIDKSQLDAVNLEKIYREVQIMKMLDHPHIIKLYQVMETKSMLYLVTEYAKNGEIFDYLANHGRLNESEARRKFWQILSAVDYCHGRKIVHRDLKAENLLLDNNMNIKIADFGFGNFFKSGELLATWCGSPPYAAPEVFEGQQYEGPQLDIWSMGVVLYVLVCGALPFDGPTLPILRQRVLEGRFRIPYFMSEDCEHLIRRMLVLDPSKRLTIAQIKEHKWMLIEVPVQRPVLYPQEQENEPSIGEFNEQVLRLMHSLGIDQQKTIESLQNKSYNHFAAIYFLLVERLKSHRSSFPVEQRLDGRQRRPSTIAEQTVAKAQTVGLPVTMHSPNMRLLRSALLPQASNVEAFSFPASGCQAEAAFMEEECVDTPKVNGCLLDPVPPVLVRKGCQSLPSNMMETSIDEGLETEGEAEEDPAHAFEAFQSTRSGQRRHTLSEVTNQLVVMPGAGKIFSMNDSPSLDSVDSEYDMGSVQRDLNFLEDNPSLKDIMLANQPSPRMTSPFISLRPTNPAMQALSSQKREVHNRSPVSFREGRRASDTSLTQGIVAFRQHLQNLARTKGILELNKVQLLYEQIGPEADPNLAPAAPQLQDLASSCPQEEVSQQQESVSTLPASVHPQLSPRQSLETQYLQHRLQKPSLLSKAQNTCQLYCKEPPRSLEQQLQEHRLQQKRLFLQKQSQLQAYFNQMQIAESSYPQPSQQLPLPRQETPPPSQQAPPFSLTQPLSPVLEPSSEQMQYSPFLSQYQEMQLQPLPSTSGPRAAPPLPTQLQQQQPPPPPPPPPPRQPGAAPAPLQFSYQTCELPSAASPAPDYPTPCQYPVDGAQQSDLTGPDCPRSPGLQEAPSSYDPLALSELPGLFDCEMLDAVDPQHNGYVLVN
Procedure: as §1

[17] = molecular target: BMX/ETK (Homo sapiens, UniProt P51813); details: single concentration of 1 μM; read-out: percent inhibition of BMX/ETK
Procedure: as §1

[18] = molecular target: MEKK1 (Homo sapiens, UniProt Q13233); details: single concentration of 1 μM; read-out: percent inhibition of MEKK1
Procedure: as §1

[19] = molecular target: CSK (Homo sapiens, UniProt P41240); details: single concentration of 1 μM; read-out: percent inhibition of CSK
Procedure: as §1

[20] = molecular target: FRK/PTK5 (Homo sapiens, UniProt P42685); details: single concentration of 1 μM; read-out: percent inhibition of FRK/PTK5
Sequence of FRK/PTK5 (P42685 whole entry): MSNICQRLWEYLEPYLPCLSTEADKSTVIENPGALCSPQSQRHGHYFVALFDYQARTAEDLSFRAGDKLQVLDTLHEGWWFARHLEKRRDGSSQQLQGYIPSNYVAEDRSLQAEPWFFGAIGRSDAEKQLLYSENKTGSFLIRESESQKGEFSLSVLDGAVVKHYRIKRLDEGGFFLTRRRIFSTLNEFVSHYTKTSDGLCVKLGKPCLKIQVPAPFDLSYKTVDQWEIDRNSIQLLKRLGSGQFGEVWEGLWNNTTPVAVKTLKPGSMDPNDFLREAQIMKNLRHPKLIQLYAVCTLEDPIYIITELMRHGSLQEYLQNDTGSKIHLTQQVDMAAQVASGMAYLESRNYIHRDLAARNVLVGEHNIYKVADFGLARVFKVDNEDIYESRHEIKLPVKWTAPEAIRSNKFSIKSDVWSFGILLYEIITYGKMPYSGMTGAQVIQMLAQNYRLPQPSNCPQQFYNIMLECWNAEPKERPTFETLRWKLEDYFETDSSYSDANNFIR
Procedure: as §1

[21] = molecular target: MLK4 (Homo sapiens, UniProt Q5TCX8); details: single concentration of 1 μM; read-out: percent inhibition of MLK4
Procedure: as §1

[22] = molecular target: SRPK1 (Homo sapiens, UniProt Q96SB4); details: single concentration of 1 μM; read-out: percent inhibition of SRPK1
Procedure: as §1

[23] = molecular target: EPHB1 (Homo sapiens, UniProt P54762); details: single concentration of 1 μM; read-out: percent inhibition of EPHB1
Procedure: as §1

[24] = molecular target: BTK (Homo sapiens, UniProt Q06187); details: single concentration of 1 μM; read-out: percent inhibition of BTK
Procedure: as §1

Sequence of EPHA8 (P29322 28-1005): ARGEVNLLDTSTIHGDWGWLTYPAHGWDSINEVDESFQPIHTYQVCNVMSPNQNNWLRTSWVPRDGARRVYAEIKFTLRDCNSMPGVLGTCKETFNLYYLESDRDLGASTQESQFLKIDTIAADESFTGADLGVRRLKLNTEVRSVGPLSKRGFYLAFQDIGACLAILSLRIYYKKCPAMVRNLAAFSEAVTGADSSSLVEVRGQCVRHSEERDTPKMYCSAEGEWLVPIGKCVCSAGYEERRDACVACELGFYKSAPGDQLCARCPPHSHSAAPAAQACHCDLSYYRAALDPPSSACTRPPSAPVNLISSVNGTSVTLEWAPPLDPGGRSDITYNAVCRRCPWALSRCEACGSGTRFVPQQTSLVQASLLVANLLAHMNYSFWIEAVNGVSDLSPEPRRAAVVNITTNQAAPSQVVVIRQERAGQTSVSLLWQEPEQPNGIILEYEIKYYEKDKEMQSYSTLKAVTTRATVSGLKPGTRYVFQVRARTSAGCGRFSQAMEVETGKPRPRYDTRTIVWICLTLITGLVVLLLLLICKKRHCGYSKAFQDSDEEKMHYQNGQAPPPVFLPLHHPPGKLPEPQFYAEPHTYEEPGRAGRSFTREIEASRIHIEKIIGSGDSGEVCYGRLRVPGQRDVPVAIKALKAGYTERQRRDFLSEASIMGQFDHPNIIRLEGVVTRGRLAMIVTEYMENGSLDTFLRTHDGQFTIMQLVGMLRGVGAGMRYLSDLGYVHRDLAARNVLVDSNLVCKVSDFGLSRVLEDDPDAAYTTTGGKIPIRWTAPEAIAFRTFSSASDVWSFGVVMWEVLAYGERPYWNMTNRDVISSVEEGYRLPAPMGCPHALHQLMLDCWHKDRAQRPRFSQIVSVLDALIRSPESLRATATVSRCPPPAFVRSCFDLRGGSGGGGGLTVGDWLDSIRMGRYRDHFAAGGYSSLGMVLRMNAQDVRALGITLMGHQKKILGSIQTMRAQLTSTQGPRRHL

inhibition at 1 µM [1]: ≥ 70%
inhibition at 1 µM [2]: ≥ 70%
inhibition at 1 µM [3]: ≥ 70%
inhibition at 1 µM [4]: ≥ 70%
inhibition at 1 µM [5]: ≥ 70%
inhibition at 1 µM [6]: ≥ 70%
inhibition at 1 µM [7]: ≥ 70%
inhibition at 1 µM [8]: ≥ 70%
inhibition at 1 µM [9]: ≥ 70%
inhibition at 1 µM [10]: ≥ 70%
inhibition at 1 µM [11]: ≥ 70%
inhibition at 1 µM [12]: ≥ 70%
inhibition at 1 µM [13]: ≥ 70%
inhibition at 1 µM [14]: ≥ 70%
inhibition at 1 µM [15]: ≥ 70%
inhibition at 1 µM [16]: ≥ 70%
inhibition at 1 µM [17]: ≥ 70%
inhibition at 1 µM [18]: ≥ 70%
inhibition at 1 µM [19]: ≥ 70%
inhibition at 1 µM [20]: ≥ 70%
inhibition at 1 µM [21]: ≥ 70%
inhibition at 1 µM [22]: ≥ 70%
inhibition at 1 µM [23]: ≥ 70%
inhibition at 1 µM [24]: ≥ 70%
SMILES: Cc1ccc(Nc2ncc3cc(-c4cc(NC(=O)c5cccc(C(F)(F)F)c5)ccc4C)ncc3n2)cn1 [Compound No. 4, N-(4-methyl-3-(2-((6-methylpyridin-3-yl)amino)pyrido[3,4-d]pyrimidin-6-yl)phenyl)-3-(trifluoromethyl)benzamide]
